Measurements published in ChEMBL document CHEMBL4842313, “Combating multi-drug resistant malaria parasite by inhibiting falcipain-2 and heme-polymerization: Artemisinin-peptidyl vinyl phosphonate hybrid molecules as new antimalarials” (Eur J Med Chem, 2021).
Activity calls are given as the source filed them. The rule behind the calls is not given here.

Legend:
Falcipain 2 [1] = target: T1, Falcipain 2 (Plasmodium falciparum, UniProt Q9N6S8); assay: Inhibition of recombinant Plasmodium falciparum falcipain-2 expressed in Escherichia coli M15 assessed as reduction in free AMC release using Z-FR-AMC as a substrate measured over 30 mins by fluorometric assay
T1 sequence (Q9N6S8 whole entry): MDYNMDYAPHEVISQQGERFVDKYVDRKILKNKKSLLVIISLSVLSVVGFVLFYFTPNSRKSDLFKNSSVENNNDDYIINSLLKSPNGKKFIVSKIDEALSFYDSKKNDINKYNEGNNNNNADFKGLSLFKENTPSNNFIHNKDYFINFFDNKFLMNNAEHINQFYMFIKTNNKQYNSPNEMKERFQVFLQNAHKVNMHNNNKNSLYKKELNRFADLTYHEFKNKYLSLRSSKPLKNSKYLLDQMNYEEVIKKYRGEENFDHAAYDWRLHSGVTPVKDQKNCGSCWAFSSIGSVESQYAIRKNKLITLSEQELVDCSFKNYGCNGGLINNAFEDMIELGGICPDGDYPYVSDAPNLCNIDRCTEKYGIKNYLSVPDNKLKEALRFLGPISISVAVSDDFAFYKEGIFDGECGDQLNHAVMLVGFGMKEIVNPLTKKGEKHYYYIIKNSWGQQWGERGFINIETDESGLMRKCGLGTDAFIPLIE

Falcipain 2 [2] = target: T1, Falcipain 2; assay: Inhibition of recombinant Plasmodium falciparum falcipain-2 expressed in Escherichia coli M15 assessed as reduction in free AMC release using Z-FR-AMC as a substrate measured over 30 mins by Cheng-prusoff equation analysis
Plasmodium berghei [3] = assay: Antimalarial activity against blood stage of Plasmodium berghei infected in BALB/c mouse assessed as mouse survival time at 12.5 mg/kg, ip administered once daily for 4 consecutive days (reference value: 12 to 15 days); type: functional; details: time 4 day
[4] = Drug degradation in human plasma; type: ADME, cell-free
Plasmodium falciparum [5] = assay: Antimalarial activity against asexual blood stage of Plasmodium falciparum assessed as inhibition of mature schizonts development at EC50 observed at 48 hrs post invasion; type: functional, organism-based
Plasmodium falciparum [6] = assay: Antimalarial activity against chloroquine and pyrimethamine-resistant Plasmodium falciparum 7G8 assessed as parasite growth inhibition incubated for 48 hrs by SYBR green DNA fluorescent dye-binding assay; type: functional, organism-based; details: 7G8, 48 h
Plasmodium berghei [7] = assay: Antimalarial activity against blood stage of Plasmodium berghei infected in BALB/c mouse assessed as parasite clearance at 12.5 mg/kg, ip administered once daily for 4 consecutive days measured on day 10 by Giemsa staining based assay (reference value: 0%); type: functional; details: time 10 day
Plasmodium falciparum [8] = assay: Antimalarial activity against asexual blood stage of Plasmodium falciparum assessed as darkly stained dead parasites at EC50 observed at 60 hrs post invasion; type: functional, organism-based
A549 = assay: Cytotoxicity against human A549 cells assessed as reduction in cell viability measured after 24 hrs by WST-1 assay; type: cell-based; details: A549, 24 h
Plasmodium falciparum [9] = assay: Antimalarial activity against chloroquine, pyrimethamine and mefloquine-resistant Plasmodium falciparum Dd2 assessed as parasite growth inhibition incubated for 48 hrs by SYBR green DNA fluorescent dye-binding assay; type: functional, organism-based; details: Dd2, 48 h
Plasmodium falciparum [10] = assay: Antimalarial activity against asexual blood stage of Plasmodium falciparum assessed as abnormalities in food vacuole observed upto 60 hrs post invasion; type: functional, organism-based; details: time hrs <=60
Plasmodium berghei [11] = assay: Antimalarial activity against blood stage of Plasmodium berghei infected in BALB/c mouse assessed as suppression of parasite growth at 12.5 mg/kg, ip administered once daily for 4 consecutive days measured on day 5 by Giemsa staining based assay; type: functional, organism-based; details: time 5.0 day
[12] = target: T2, Heme ligase (Plasmodium falciparum (isolate 3D7)) (UniProt Q8IL04); assay: Inhibition of recombinant Plasmodium falciparum heme detoxification protein expressed in Escherichia coli M15 assessed as reduction in hemozoin formation using heme as substrate measured after 3 hrs relative to control; details: concentration not given here
T2 sequence (whole entry): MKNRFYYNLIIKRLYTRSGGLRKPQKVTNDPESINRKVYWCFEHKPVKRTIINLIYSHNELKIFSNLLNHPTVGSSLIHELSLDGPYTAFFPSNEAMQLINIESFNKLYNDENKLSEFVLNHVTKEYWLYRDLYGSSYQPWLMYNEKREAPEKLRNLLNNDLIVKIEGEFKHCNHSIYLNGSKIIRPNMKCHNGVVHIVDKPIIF

Plasmodium falciparum [13] = assay: Antimalarial activity against Plasmodium falciparum 3D7 assessed as parasite growth inhibition incubated for 48 hrs by SYBR green DNA fluorescent dye-binding assay; type: functional, organism-based; details: 3D7, 48 h
Plasmodium berghei [14] = assay: Antimalarial activity against blood stage of Plasmodium berghei infected in BALB/c mouse assessed as suppression of parasite growth at 12.5 mg/kg, ip administered once daily for 4 consecutive days measured on day 6 by Giemsa staining based assay; type: functional, organism-based; details: time 6.0 day
Plasmodium falciparum [15] = assay: Antimalarial activity against laboratory adapted artemisinin-resistant Plasmodium falciparum RT4974 assessed as inhibition of the survival of ring-stage parasite measured after 66 hrs by ring survival assay; type: functional, organism-based
Cytochrome P450 = assay: Inhibition of CYP450 (unknown origin); type: ADME, protein assay; details: human

## CCOP(=O)(/C=C/C(NC(=O)[C@H](CO[C@H]1O[C@@H]2O[C@@]3(C)CC[C@H]4[C@H](C)CC[C@@H]([C@H]1C)[C@@]24OO3)NC(=O)OCc1ccccc1)c1ccccc1)OCC (stereo partly drawn)
Falcipain 2 [1]
  IC50: > 100000 nM
Falcipain 2 [2]
  Ki: Not Active

## CCOP(=O)(/C=C/C(NC(=O)[C@H](CC(C)C)NC(=O)[C@@H]1C[C@@H](O[C@H]2O[C@@H]3O[C@@]4(C)CC[C@H]5[C@H](C)CC[C@@H]([C@H]2C)[C@@]35OO4)CN1C(=O)OCc1ccccc1)c1ccccc1)OCC (stereo partly drawn)
Plasmodium berghei [3]
  Survival: >60 days
[4]
  Stabilty: Unstable
Plasmodium falciparum [5]
  Activity: Active
Plasmodium falciparum [6]
  EC50: 1.2 nM
Plasmodium berghei [7]
  Activity: 100%
Plasmodium falciparum [8]
  Activity: Active
A549
  EC50: 1280 nM
Plasmodium falciparum [9]
  EC50: 5.5 nM
Plasmodium falciparum [10]
  Activity: Active
Plasmodium berghei [11]
  Activity: inactive
[12]
  inhibition: 90%
Plasmodium falciparum [13]
  EC50: 2.57 nM
Plasmodium berghei [14]
  Activity: Active
Plasmodium falciparum [15]
  Activity: Active
Cytochrome P450
  inhibition (INH): Active

## COC(=O)[C@@H]1C[C@@H](O[C@H]2O[C@@H]3O[C@@]4(C)CC[C@H]5[C@H](C)CC[C@@H]([C@H]2C)[C@@]35OO4)CN1C(=O)OCc1ccccc1
Falcipain 2 [1]
  IC50: > 100000 nM
Falcipain 2 [2]
  Ki: Not Active

## COC(=O)[C@H](Cc1ccccc1)NC(=O)[C@@H]1C[C@@H](O[C@H]2O[C@@H]3O[C@@]4(C)CC[C@H]5[C@H](C)CC[C@@H]([C@H]2C)[C@@]35OO4)CN1C(=O)OCc1ccccc1
Falcipain 2 [1]
  IC50: > 100000 nM
Falcipain 2 [2]
  Ki: Not Active

## C[C@@H]1CC[C@H]2[C@@H](C)C(=O)O[C@@H]3O[C@@]4(C)CC[C@@H]1[C@]32OO4 [ARTEMISININ]
Plasmodium berghei [3]
  Survival: 15 days
Plasmodium falciparum [6]
  EC50: 18 nM
Plasmodium berghei [7]
  Activity: 0%
Plasmodium falciparum [9]
  EC50: 15 nM
Plasmodium falciparum [13]
  EC50: 27 nM

## CCOP(=O)(/C=C/C(NC(=O)[C@@H]1C[C@@H](O[C@H]2O[C@@H]3O[C@@]4(C)CC[C@H]5[C@H](C)CC[C@@H]([C@H]2C)[C@@]35OO4)CN1C(=O)OCc1ccccc1)c1ccccc1)OCC (stereo partly drawn)
Falcipain 2 [1]
  IC50: > 100000 nM
Falcipain 2 [2]
  Ki: Not Active

## CCOP(=O)(/C=C/C(NC(=O)[C@H](Cc1ccccc1)NC(=O)[C@@H]1C[C@@H](O[C@H]2O[C@@H]3O[C@@]4(C)CC[C@H]5[C@H](C)CC[C@@H]([C@H]2C)[C@@]35OO4)CN1C(=O)OCc1ccccc1)c1ccccc1)OCC (stereo partly drawn)
Falcipain 2 [1]
  IC50: > 100000 nM
Falcipain 2 [2]
  Ki: Not Active

## CCOP(=O)(/C=C/C(N)c1ccccc1)OCC (stereo not drawn)
A549
  EC50: > 30000 nM
Plasmodium falciparum [13]
  EC50: > 100000 nM
Falcipain 2 [1]
  IC50: > 25000 nM
Falcipain 2 [2]
  Ki: Not Active

## CCOP(=O)(/C=C/[C@@H](NC(=O)[C@H](Cc1ccccc1)NC(=O)[C@H](CO[C@H]1O[C@@H]2O[C@@]3(C)CC[C@H]4[C@H](C)CC[C@@H]([C@H]1C)[C@@]24OO3)NC(=O)OCc1ccccc1)c1ccccc1)OCC
Plasmodium falciparum [13]
  EC50: 0.95 nM

## CCOP(=O)(/C=C/C(NC(=O)[C@H](Cc1ccccc1)NC(=O)[C@H](CO[C@H]1O[C@@H]2O[C@@]3(C)CC[C@H]4[C@H](C)CC[C@@H]([C@H]1C)[C@@]24OO3)NC(=O)OCc1ccccc1)c1ccccc1)OCC (stereo partly drawn)
Plasmodium berghei [3]
  Survival: >60 days
[4]
  Stabilty: Unstable
Plasmodium falciparum [5]
  Activity: Active
Plasmodium falciparum [6]
  EC50: 0.47 nM
Plasmodium berghei [7]
  Activity: 80%
Plasmodium falciparum [8]
  Activity: Active
A549
  EC50: 14600 nM
Plasmodium falciparum [9]
  EC50: 1.9 nM
Plasmodium falciparum [10]
  Activity: Active
Plasmodium berghei [11]
  Activity: inactive
[12]
  inhibition: 80%
Plasmodium falciparum [13]
  EC50: 2.7 nM
Plasmodium berghei [14]
  Activity: Active
Plasmodium falciparum [15]
  Activity: Active
Cytochrome P450
  inhibition (INH): Active

## COC(=O)[C@H](CC(C)C)NC(=O)[C@@H]1C[C@@H](O[C@H]2O[C@@H]3O[C@@]4(C)CC[C@H]5[C@H](C)CC[C@@H]([C@H]2C)[C@@]35OO4)CN1C(=O)OCc1ccccc1
Falcipain 2 [1]
  IC50: > 100000 nM
Falcipain 2 [2]
  Ki: Not Active

## CCOP(=O)(/C=C/C(NC(=O)[C@H](CC(C)C)NC(=O)[C@H](CO[C@H]1O[C@@H]2O[C@@]3(C)CC[C@H]4[C@H](C)CC[C@@H]([C@H]1C)[C@@]24OO3)NC(=O)OCc1ccccc1)c1ccccc1)OCC (stereo partly drawn)
Plasmodium berghei [3]
  Survival: >60 days
[4]
  Stabilty: Unstable
Plasmodium falciparum [5]
  Activity: Active
Plasmodium falciparum [6]
  EC50: 0.23 nM
Plasmodium berghei [7]
  Activity: 100%
Plasmodium falciparum [8]
  Activity: Active
A549
  EC50: 3820 nM
Plasmodium falciparum [9]
  EC50: 3.5 nM
Plasmodium falciparum [10]
  Activity: Active
Plasmodium berghei [11]
  Activity: inactive
[12]
  inhibition: 60%
Plasmodium falciparum [13]
  EC50: 3.3 nM
Plasmodium berghei [14]
  Activity: Active
Plasmodium falciparum [15]
  Activity: Active
Cytochrome P450
  inhibition (INH): Active

## COC(=O)[C@H](CC(C)C)NC(=O)[C@H](CO[C@H]1O[C@@H]2O[C@@]3(C)CC[C@H]4[C@H](C)CC[C@@H]([C@H]1C)[C@@]24OO3)NC(=O)OCc1ccccc1
Falcipain 2 [1]
  IC50: > 100000 nM
Falcipain 2 [2]
  Ki: Not Active

## C[C@H]1[C@@H](O)O[C@@H]2O[C@@]3(C)CC[C@H]4[C@H](C)CC[C@@H]1[C@@]24OO3 [ARTENIMOL]
A549
  EC50: > 25000 nM
Plasmodium falciparum [13]
  EC50: 4.97 nM
Falcipain 2 [1]
  IC50: > 100000 nM
Falcipain 2 [2]
  Ki: Not Active

## COC(=O)[C@H](CO[C@H]1O[C@@H]2O[C@@]3(C)CC[C@H]4[C@H](C)CC[C@@H]([C@H]1C)[C@@]24OO3)NC(=O)OCc1ccccc1
Falcipain 2 [1]
  IC50: > 100000 nM
Falcipain 2 [2]
  Ki: Not Active

## COC(=O)[C@H](Cc1ccccc1)NC(=O)[C@H](CO[C@H]1O[C@@H]2O[C@@]3(C)CC[C@H]4[C@H](C)CC[C@@H]([C@H]1C)[C@@]24OO3)NC(=O)OCc1ccccc1
Falcipain 2 [1]
  IC50: > 100000 nM
Falcipain 2 [2]
  Ki: Not Active

## CCOP(=O)(/C=C/[C@H](NC(=O)[C@H](CC(C)C)NC(=O)[C@@H]1C[C@@H](O[C@H]2O[C@@H]3O[C@@]4(C)CC[C@H]5[C@H](C)CC[C@@H]([C@H]2C)[C@@]35OO4)CN1C(=O)OCc1ccccc1)c1ccccc1)OCC
Plasmodium falciparum [13]
  EC50: 6.12 nM
Falcipain 2 [2]
  Ki: Not Active

## CCOP(=O)(/C=C/[C@@H](NC(=O)[C@H](CC(C)C)NC(=O)[C@@H]1C[C@@H](O[C@H]2O[C@@H]3O[C@@]4(C)CC[C@H]5[C@H](C)CC[C@@H]([C@H]2C)[C@@]35OO4)CN1C(=O)OCc1ccccc1)c1ccccc1)OCC
Plasmodium falciparum [13]
  EC50: 1.04 nM

## CCOP(=O)(/C=C/[C@@H](NC(=O)[C@H](CC(C)C)NC(=O)[C@H](CO[C@H]1O[C@@H]2O[C@@]3(C)CC[C@H]4[C@H](C)CC[C@@H]([C@H]1C)[C@@]24OO3)NC(=O)OCc1ccccc1)c1ccccc1)OCC
Plasmodium falciparum [13]
  EC50: 10.9 nM

## CCOP(=O)(/C=C/[C@H](NC(=O)[C@H](Cc1ccccc1)NC(=O)[C@H](CO[C@H]1O[C@@H]2O[C@@]3(C)CC[C@H]4[C@H](C)CC[C@@H]([C@H]1C)[C@@]24OO3)NC(=O)OCc1ccccc1)c1ccccc1)OCC
Plasmodium falciparum [13]
  EC50: 2.03 nM

## CCOP(=O)(/C=C/[C@H](NC(=O)[C@H](CC(C)C)NC(=O)[C@H](CO[C@H]1O[C@@H]2O[C@@]3(C)CC[C@H]4[C@H](C)CC[C@@H]([C@H]1C)[C@@]24OO3)NC(=O)OCc1ccccc1)c1ccccc1)OCC
Plasmodium falciparum [13]
  EC50: 16.7 nM
